This note sets out measurements from patent US20200261440A1, “ZINC IONOPHORES AND USES THEREOF” (THE UNIVERSITY OF QUEENSLAND, priority 2017, published 2020).

In brackets after ≈: the same amount, converted by molar mass. Entries after “also recorded” stand apart in the source; their conditions may differ. Read-outs that look alike come from different tables or passages of the source. Some results are limits rather than exact numbers.

Test [1] has as its system GAS strain HKU16 (Streptococcus pyogenes strain HKU16). Kind of test: microbe, parasite or virus in culture. Format: cell-based. Conditions: GAS. The protocol:
(§1) J. Path. Bact. […] Proc. Soc.
(§2) MIC assays were carried out in biological triplicates.
(§3) M100 Performance Standards for Antimicrobial Susceptibility Testing, 27th Edition.

Test [2] relates to Klebsiella pneumoniae strain MS6771. The experiment in a line: MIC by broth microdilution (CLSI). It is filed as cell-based. Conditions: Klebsiella pneumoniae, read-out: MIC. For orientation: Dilution methods test growth across graded concentrations, often in twofold steps.
Test [3] relates to Vancomycin-resistant Enterococci (VRE) clinical isolate RBWH1. The experiment in a line: MIC by broth microdilution (CLSI). Format: cell-based, Enterococcus. Conditions: Enterococcus, VRE, read-out: MIC. The protocol:
as §1, §2, §3

In test [4] the test system is Methicillin-resistant Staphylococcus aureus (MRSA) strain USA300. The experiment in a line: MIC by broth microdilution (CLSI). Particulars: for MIC: Staphylococcus aureus; for antibiotic sensitivity of resistant strain: addition of sub-inhibitory PBT2+zinc(II) ions.
Protocol: GAS HKU16, MRSA USA300, VRE RBWH1, Klebsiella pneumoniae strain MS6771, E. coli strain MS8345 and Streptococcus pneumoniae strain 23F were grown in Todd-Hewitt broth (THB) or agar with 1% yeast extract (THY) [Todd, E. W. & Hewitt, L. F. A new culture medium for the production of antigenic streptococcal haemolysin. […] Bacteria were routinely grown at 37° C. in ambient air.
MICs were determined by broth microdilution in accordance to CLSI guidelines (“Methods for Dilution Antimicrobial Susceptibility Tests for Bacteria That Grow Aerobically”, Clinical and Laboratory Standards Institute) [Clinical and Laboratory Standards Institute. […] For MRSA, VRE, Klebsiella pneumoniae and E. coli the assays were performed in MHB, and for GAS and Streptococcus pneumoniae MHB+2.5% lysed horse blood (LHB) was used. The bacterial inoculum was prepared by direct colony suspension aiming for 2-8×10^5 colony forming units (CFU)/mL bacteria per well. Antibiotics/compounds were serially diluted two-fold across the 96-well plate, the last column contained no antibiotics/compounds. The inoculum was added to the plate containing antibiotic/compound and incubated for 16-24 h at 35+/−2° C. […] MIC assays were carried out in biological triplicates.
Using Clinical and Laboratory Standards Institute guidelines for antimicrobial sensitivity testing [Clinical and Laboratory Standards Institute.
In test [5] the test system is Streptococcus pneumoniae 23F. The experiment in a line: MIC by broth microdilution (CLSI). It is filed as cell-based.
The mark [6] stands for this setting: MS6771, K. pneumoniae, RA-HQ-12: 0 μM, Zn: 0 μM.
Setting [7] is: MS6771, K. pneumoniae, RA-HQ-12: 16 μM, Zn: 64 μM.
Where [8] appears, read: MS6771, K. pneumoniae, RA-HQ-12: 16 μM.
Setting [9] is: MS6771, K. pneumoniae, Zn: 64 μM.
Where [10] appears, read: MRSA|USA300, MRSA, RA-HQ-12: 3.5 μM, Zn: […], oxacillin with 2% NaCl.
[11] abbreviates: MRSA|USA300, MRSA, RA-HQ-12: 3.5 μM, oxacillin with 2% NaCl.
Setting [12] is: MRSA USA300, CQ: 0 μM, Zinc: 0 μM.
The mark [13] stands for this setting: MRSA USA300, CQ: 1 μM, Zinc: 32 μM.
Where [14] appears, read: MRSA USA300, PBT2: 0 μM, Zinc: 0 μM.
The mark [15] stands for this setting: MRSA USA300, PBT2: 2 μM, Zinc: 50 μM.
Where [16] appears, read: MS6771, Klebsiella pneumoniae, CQ: 0 μM, Zinc: 0 μM.
The mark [17] stands for this setting: MS6771, Klebsiella pneumoniae, CQ: 64 μM, Zinc: 256 μM.
[18] abbreviates: MS6771, Klebsiella pneumoniae, CQ: 64 μM.
[19] abbreviates: MS6771, Klebsiella pneumoniae, PBT2: 0 μM, Zinc: 0 μM.
Setting [20] is: MS6771, Klebsiella pneumoniae, PBT2: 64 μM, Zinc: 256 μM.
Setting [21] is: MS6771, Klebsiella pneumoniae, PBT2: 64 μM.
Where [22] appears, read: MS6771, Klebsiella pneumoniae, Zinc: 256 μM (CQ panel).
Where [23] appears, read: MS6771, Klebsiella pneumoniae, Zinc: 256 μM (PBT2 panel).
The mark [24] stands for this setting: Streptococcus pneumoniae, 23F, PBT2: 0 μM, Zinc: 0 μM, read-out: MIC.
The mark [25] stands for this setting: Streptococcus pneumoniae, 23F, PBT2: 8 μM, Zinc: 32 μM, read-out: MIC.
Where [26] appears, read: Streptococcus pneumoniae, 23F, PBT2: 8 μM, read-out: MIC.
[27] abbreviates: Streptococcus pneumoniae, 23F, Zinc: 32 μM, read-out: MIC.
Where [28] appears, read: MRSA|USA300, MRSA USA300, CQ: 0.75 μM, Zinc: 16 μM, +2% NaCl.
The mark [29] stands for this setting: MRSA|USA300, MRSA USA300, PBT2: 2 μM, Zinc: 25 μM, +2% NaCl.
[30] abbreviates: MRSA|USA300, MRSA, RA-HQ-12: 0 μM, Zn: 0 μM, oxacillin with 2% NaCl.

In the case of `CC[C@H]1OC(=O)[C@H](C)[C@@H](O[C@H]2C[C@@](C)(OC)[C@@H](O)[C@H](C)O2)[C@H](C)[C@@H](O[C@@H]2O[C@H](C)C[C@H](N(C)C)[C@H]2O)[C@](C)(O)C[C@@H](C)CN(C)[C@H](C)[C@@H](O)[C@]1(C)O` [Azithromycin, azithromycin], the MIC is greater than 128 µg/mL in test [1] (Streptococcus pyogenes, RA-HQ-12: 0 μM, Zn: 0 μM, read-out: MIC); 32 µg/mL (≈ 42.7 µM) in test [2] (setting [6]); 32 µg/mL (≈ 42.7 µM) in test [2] (setting [7]); 32 µg/mL (≈ 42.7 µM) in test [2] (setting [8]); 32 µg/mL (≈ 42.7 µM) in test [2] (setting [9]); greater than 128 µg/mL in test [3] (RA-HQ-12: 3.5 μM, Zn: […]). For the same molecule, the MIC in test [3] (RA-HQ-12: 3.5 μM) is greater than 128 µg/mL; in test [3] (Zn: […] (RA-HQ-12 panel)), greater than 128 µg/mL; in test [3] (RA-HQ-12: 0 μM, Zn: 0 μM), greater than 128 µg/mL; in test [4], 128 µg/mL (≈ 171 µM); in test [4] (setting [10]) it was 32 µg/mL (≈ 42.7 µM); in test [4] (setting [11]) it was 64 µg/mL (≈ 85.4 µM).
For `CC[C@H]1OC(=O)[C@H](C)[C@@H](O[C@H]2C[C@@](C)(OC)[C@@H](O)[C@H](C)O2)[C@H](C)[C@@H](O[C@@H]2O[C@H](C)C[C@H](N(C)C)[C@H]2O)[C@](C)(O)C[C@@H](C)C(=O)[C@H](C)[C@@H](O)[C@]1(C)O` [Erythromycin, erythromycin], the “antibiotic sensitivity of resistant strain” value (from here on “antibiotic sensitivity”) in test [4] (MRSA USA300) is recorded as “became sensitive; also recorded: reversed”. In addition, the MIC in test [4] (setting [12]) was 64 µg/mL (≈ 87.2 µM); in test [4] (MRSA USA300, CQ: 1 μM), 64 µg/mL (≈ 87.2 µM); in test [4] (setting [13]) it was 1 µg/mL (≈ 1.36 µM); in test [4] (setting [14]), 64 µg/mL (≈ 87.2 µM); in test [4] (MRSA USA300, PBT2: 2 μM) it was 32 µg/mL (≈ 43.6 µM); in test [4] (setting [15]), 0.5 µg/mL (≈ 0.681 µM). The MIC was 64 µg/mL (≈ 87.2 µM) in test [4] (MRSA USA300, Zinc: 32 μM); 64 µg/mL (≈ 87.2 µM) in test [4] (MRSA USA300, Zinc: 50 μM); 64 µg/mL (≈ 87.2 µM) in test [4] (setting [11]).
As for `O=C(N[C@H](CO)[C@H](O)c1ccc([N+](=O)[O-])cc1)C(Cl)Cl` [Chloramphenicol, chloramphenicol], the MIC is 128 µg/mL (≈ 396 µM) in test [2] (setting [16]); 64 µg/mL (≈ 198 µM) in test [2] (setting [17]); 64 µg/mL (≈ 198 µM) in test [2] (setting [18]); 128 µg/mL (≈ 396 µM) in test [2] (setting [19]); 128 µg/mL (≈ 396 µM) in test [2] (setting [20]); 128 µg/mL (≈ 396 µM) in test [2] (setting [21]). Moreover, the MIC in test [2] (setting [22]) came out at 128 µg/mL (≈ 396 µM); in test [2] (setting [23]), 128 µg/mL (≈ 396 µM); in test [5] (setting [24]) it was 16 µg/mL (≈ 49.5 µM); in test [5] (setting [25]), 2 µg/mL (≈ 6.19 µM); in test [5] (setting [26]), 16 µg/mL (≈ 49.5 µM); in test [5] (setting [27]), 16 µg/mL (≈ 49.5 µM). Besides, in test [5] (addition of sub-inhibitory PBT2+zinc(II) ions), the “antibiotic sensitivity” value is “became sensitive”.
Regarding `COc1cccc(OC)c1C(=O)N[C@@H]1C(=O)N2[C@@H]1SC(C)(C)[C@@H]2C(=O)O` [Methicillin, methicillin], the MIC in test [4] (MRSA USA300, CQ: 0 μM, Zinc: 0 μM, +2% NaCl) was greater than 128 µg/mL; in test [4] (MRSA USA300, CQ: 0.75 μM, +2% NaCl) it was greater than 128 µg/mL; in test [4] (MRSA USA300, PBT2: 2 μM, +2% NaCl), greater than 128 µg/mL; in test [4] (MRSA USA300, Zinc: 16 μM, +2% NaCl), greater than 128 µg/mL; in test [4] (MRSA USA300, Zinc: 25 μM, +2% NaCl), greater than 128 µg/mL; in test [4] (setting [28]), greater than 128 µg/mL. Besides, the MIC in test [4] (MRSA|USA300, MRSA USA300, PBT2: 0 μM, Zinc: 0 μM, +2% NaCl) was greater than 128 µg/mL; in test [4] (setting [29]), greater than 128 µg/mL.
With `CN(C)[C@@H]1C(O)=C(C(N)=O)C(=O)[C@@]2(O)C(O)=C3C(=O)c4c(O)cccc4[C@@](C)(O)[C@H]3C[C@@H]12` [Tetracycline, tetracycline], the MIC in test [2] (setting [6]) is 32 µg/mL (≈ 72 µM); in test [2] (setting [7]) it was 32 µg/mL (≈ 72 µM); in test [2] (setting [8]), 32 µg/mL (≈ 72 µM); in test [2] (setting [9]), 32 µg/mL (≈ 72 µM); in test [2] (setting [16]), 32 to 64 µg/mL (≈ 72 to 144 µM); in test [2] (setting [17]) it was 4 to 8 µg/mL (≈ 9 to 18 µM). Besides, the MIC was 16 µg/mL (≈ 36 µM) in test [2] (setting [18]); 16 to 32 µg/mL (≈ 36 to 72 µM) in test [2] (setting [19]); 4 µg/mL (≈ 9 µM) in test [2] (setting [20]); 8 µg/mL (≈ 18 µM) in test [2] (setting [21]); 8 µg/mL (≈ 18 µM) in test [2] (setting [22]); 8 µg/mL (≈ 18 µM) in test [2] (setting [23]). Besides, the MIC was 1 to 2 µg/mL (≈ 2.25 to 4.5 µM) in test [3] (VRE RBWH1, CQ: 2.5 μM, Zinc: 32 μM); 32 µg/mL (≈ 72 µM) in test [5] (setting [24]); 1 µg/mL (≈ 2.25 µM) in test [5] (setting [25]); 32 µg/mL (≈ 72 µM) in test [5] (setting [26]); 32 µg/mL (≈ 72 µM) in test [5] (setting [27]); 0.5 µg/mL (≈ 1.13 µM) in test [4] (setting [30]).
For gentamicin, the MIC in test [5] (PBT2: 0 μM, Zinc: 0 μM) was determined as 64 µg/mL; in test [5] (PBT2: 8 μM), 4 µg/mL; in test [5] (PBT2: 8 μM, Zinc: 32 μM), 1 µg/mL; in test [5] (Zinc: 32 μM), 64 µg/mL.
On to `CC1(C)S[C@@H]2[C@H](NC(=O)[C@H](N)c3ccccc3)C(=O)N2[C@H]1C(=O)O` [Ampicillin, ampicillin], for which the MIC in test [2] (setting [6]), in test [2] (setting [7]), in test [2] (setting [8]), in test [2] (setting [9]), in test [2] (setting [16]) and in test [2] (setting [17]) was greater than 128 µg/mL each time. For the same molecule, the MIC in test [2] (setting [18]), in test [2] (setting [19]), in test [2] (setting [20]), in test [2] (setting [21]), in test [2] (setting [22]) and in test [2] (setting [23]) was greater than 128 µg/mL in each case. In addition, the MIC in test [3] (RA-HQ-12: 3.5 μM, Zn: […]) is greater than 128 µg/mL; in test [3] (RA-HQ-12: 3.5 μM), greater than 128 µg/mL; in test [3] (Zn: […] (RA-HQ-12 panel)), greater than 128 µg/mL; in test [3] (RA-HQ-12: 0 μM, Zn: 0 μM), greater than 128 µg/mL; in test [5] (setting [24]) it was 8 µg/mL (≈ 22.9 µM); in test [5] (setting [25]) it was 1 µg/mL (≈ 2.86 µM). Further, the MIC in test [5] (setting [26]) is 8 µg/mL (≈ 22.9 µM); in test [5] (setting [27]) it was 8 µg/mL (≈ 22.9 µM); in test [4] (setting [12]), greater than 128 µg/mL; in test [4] (MRSA USA300, CQ: 1 μM), greater than 128 µg/mL; in test [4] (setting [13]) it was 1 µg/mL (≈ 2.86 µM); in test [4] (setting [14]), greater than 128 µg/mL. Further, the MIC is greater than 128 µg/mL in test [4] (MRSA USA300, PBT2: 2 μM); 2 µg/mL (≈ 5.72 µM) in test [4] (setting [15]); greater than 128 µg/mL in test [4] (MRSA USA300, Zinc: 32 μM); greater than 128 µg/mL in test [4] (MRSA USA300, Zinc: 50 μM); greater than 128 µg/mL in test [4] (setting [30]); greater than 128 µg/mL in test [4] (setting [10]). In test [4] (setting [11]), this molecule registered an MIC greater than 128 µg/mL. Further, the “antibiotic sensitivity” value in test [4] (MRSA USA300) was “became sensitive”.
On to `Cc1onc(-c2ccccc2)c1C(=O)N[C@@H]1C(=O)N2[C@@H]1SC(C)(C)[C@@H]2C(=O)O` [Oxacillin, oxacillin], for which the MIC in test [1] (RA-HQ-12: 3.5 μM) is 0.125 µg/mL (≈ 0.311 µM); in test [4] (setting [28]), 0.5 to 1 µg/mL (≈ 1.25 to 2.49 µM); in test [4] (setting [29]), 1 to 2 µg/mL (≈ 2.49 to 4.98 µM). The “antibiotic sensitivity” value in test [4] (MRSA USA300) is reported as “became sensitive”.
